# According to publication PMC4343023, “Selectivity of odorant-binding proteins from the southern house mosquito tested against physiologically relevant ligands” (Frontiers in Physiology, 2015):
# Read-outs that look alike come from different tables or passages of the source.
# How the values were obtained:
# CquiOBP5 = CquiOBP5 (Culex quinquefasciatus, UniProt C7BDZ9); experiment: biochemical; format: binding; conditions: for Int (fluorescence emission): residual NPN fluorescence, normalized to 100 prior to ligand, screen at 2–20 μM ligand
# Chain of CquiOBP5 (C7BDZ9 entry or part of it): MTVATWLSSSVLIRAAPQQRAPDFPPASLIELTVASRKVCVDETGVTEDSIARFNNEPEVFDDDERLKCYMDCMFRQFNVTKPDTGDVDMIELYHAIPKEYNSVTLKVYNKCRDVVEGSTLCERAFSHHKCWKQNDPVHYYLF
# Method: (§1) Binding affinity (Ban et al., [2002]) was tested with a panel of 34 compounds, including attractants, a mosquito oviposition pheromone, repellents, terpenoids and other putative mosquito attractants or repellents. Unless otherwise specified, they were purchased from Sigma-Aldrich/Fluka/Acros (St. Louis, MO). Repellents: DEET (N,N-diethyl-3-methylbenzamide), PMD (p-mentan-3,8-diol) (Bedoukian Research, Inc.), picaridin (butan-2-yl 2-(2-hydroxyethyl)piperidine-1-carboxylate), IR3535 (ethyl 3-[acetyl(butyl)amino]propanoate) (gifts from Dr. Kamal Chauhan, USDA, ARS, Beltsville), (±)-citronellal, and ethyl 2-phenylacetate. Oviposition attractants: (5R,6S)-6-acetoxy-5-hexadecanolide, MOP (Bedoukian Research, Inc.), skatole, indole, 4-methylphenol, and 4-ethylphenol. Human derived compounds: nonanal, 6-methyl-5-hepten-2-one (sulcatone). Terpenoids and other putative attractants/repellents: linalool, linalool oxide, eucalyptol, camphor, fenchone, thujone, geranyl acetate, eugenol, (Z)-3-hexenyl acetate, 1-octen-3-ol, 1-octyn-3-ol, 3-octanol, 1-hexanol, methylcyclohexanol, methyl salicylate, cyclohexanone, acetophenone, benzaldehyde, 3,5-dimethoxybenzene, 1,2-dimethoxybenzene, and 2-phenylethanol.
# (§2) Fluorescence spectra were recorded in a right angle configuration on a spectrofluorimeter (RF-5301, Shimadzu, Kyoto, Japan) at room temperature using a 1 cm light path fluorimeter quartz cuvette. Slit widths of 10 nm were selected for both excitation and emission. N-phenyl-1-naphthylamine (NPN, or 1-NPN) (Ban et al., [2002]) was dissolved in methanol to yield a 1 mM stock solution. The binding affinity for NPN was determined by adding aliquots of NPN into a 10 μg/ml (microgram) protein sample. NPN was excited at 337 nm and emission spectra were recorded at high speed scanning between 350 and 500 nm. All ligands used in competition experiments were dissolved in spectrophotometric grade methanol. Binding data were collected in three independent measurements. Bound ligand was evaluated from fluorescence intensity assuming that the protein was 100% active, with a stoichiometry of 1:1 (protein: ligand) at saturation. The KNPN values were estimated using Prism 5 (GraphPad Software, Inc., La Jolla, CA) by non-linear regression for a unique site of binding. The curves were linearized using Scatchard plots. Dissociation constants of the competitors were calculated according to Campanacci et al. ([2001]) from the corresponding IC50 values in the equation: Kdiss = [IC50]/1+[NPN]/KNPN, where [NPN] is the free concentration of NPN and KNPN is the dissociation constant of the complex protein/NPN.
# CquiOBP2 = CquiOBP2 (Culex quinquefasciatus, UniProt C7BDZ6); experiment: biochemical; format: binding; conditions: for Int (fluorescence emission): residual NPN fluorescence, normalized to 100 prior to ligand, screen at 2–20 μM ligand
# Chain of CquiOBP2 (C7BDZ6 entry or part of it): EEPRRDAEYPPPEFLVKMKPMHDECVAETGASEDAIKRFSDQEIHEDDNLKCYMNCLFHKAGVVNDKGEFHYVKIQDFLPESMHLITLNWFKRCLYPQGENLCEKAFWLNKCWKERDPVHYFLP
# Method: as §1, §2
# CquiOBP1 [1] = molecular target: T1, CquiOBP1 (Culex quinquefasciatus, UniProt Q8T6I2); experiment: biochemical; format: binding; conditions: for Int (fluorescence emission): residual NPN fluorescence, normalized to 100 prior to ligand, screen at 2–20 μM ligand
# T1 sequence (Q8T6I2 entry or part of it): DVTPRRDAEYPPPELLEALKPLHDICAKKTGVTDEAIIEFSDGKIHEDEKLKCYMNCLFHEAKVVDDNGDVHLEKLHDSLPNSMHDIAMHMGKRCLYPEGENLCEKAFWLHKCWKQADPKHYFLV
# Method: as §1, §2
# CquiOBP1 [2] = molecular target: T1, CquiOBP1; experiment: pH-dependent binding assay; conditions: CquiOBP1-NPN quenching by ligand, pH 4.5 to 8, 4PL fit
# Method: To investigate the effects of pH on CquiOBP1–ligand complexes, fluorescence binding assay was measured between CquiOBP1 and three best ligands at different pH values. Buffer were prepared into two different ways: starting from 1M phosphate buffer, pH 4, pH was increased and adjusted by adding sodium hydroxide. Then protein was added to make a solution at each tested pH from 4.5 to 8. Experiments were repeated starting from pH 8 and lowering the pH by adding hydrochloric acid. Each tested solution had 200 mM buffer and 10 μg/ml (microgram) of CquiOBP1. As there were no significant differences in fluorescence data generated at a certain pH regardless of having the pH raised by adding NaOH or lowered by addition of HCl, data were pooled for subsequent analysis.
# The pH of the midpoint transitions was obtained by non-linear fitting, sigmoidal with an equation for four-parameter logistic (4PL) of curve segments between the lowest and highest decrease in fluorescence (the rising part of each curve). The pH values calculated for the midpoint transitions with MOP, picaridin, and nonanal were 6.3, 5.8, and 5.5, respectively. Although the pH at the surface of dendritic membrane is not known, it is predicted that too low midpoint transition may lead to odorants being trapped in OBPs and not being properly delivered. In short, the acidity at the surface of the membrane may not be enough to trigger release of a ligand with too low midpoint transition pH. By considering only the dissociation constants obtained by in vitro binding assays (Table 1), one could reasonably argue that CquiOBP1 is involved in reception of nonanal. […] Next, we compared how these ligands would interact with CquiOBP1.
# [3] = test system: Mosquitoes with reduced transcripts of CquiOBP1; parameters: method as in Pelletier et al., 2010; conditions: ref Pelletier et al., 2010; cited from earlier work
# AaegOBP1 = test system: AaegOBP1; parameters: method as in Leal and Leal, 2015; conditions: ref Leal and Leal, 2015; cited from earlier work
# AgamOBP1 = test system: AgamOBP1; parameters: method as in Biessmann et al., 2010; conditions: ref Biessmann et al., 2010; cited from earlier work
# AfunOBP1 = test system: AfunOBP1; parameters: method as in Xu et al., 2010; conditions: panel of EAG-active compounds; ref Xu et al., 2010; cited from earlier work
# [4] = CquiOBP5, NPN displacement titration, read-out: IC50
# [5] = CquiOBP5, calculated from IC50 of NPN displacement, read-out: Kd
# [6] = CquiOBP2, NPN displacement titration, read-out: IC50
# [7] = CquiOBP2, calculated from IC50 of NPN displacement, read-out: Kd
# [8] = CquiOBP1, NPN displacement titration, read-out: IC50
# [9] = CquiOBP1, calculated from IC50 of NPN displacement, read-out: Kd
Compound,Int (fluorescence emission) (CquiOBP5; CquiOBP5),Int (fluorescence emission) (CquiOBP2; CquiOBP2),Int (fluorescence emission) (CquiOBP1 [1]; CquiOBP1),IC50 (CquiOBP5; [4]),Kd (CquiOBP5; [5]),IC50 (CquiOBP2; [6]),Kd (CquiOBP2; [7]),IC50 (CquiOBP1 [1]; [8]),Kd (CquiOBP1 [1]; [9]),further results
"CCC(C)OC(=O)N1CCCCC1CCO (centres unmarked) [Picaridin, butan-2-yl 2-(2-hydroxyethyl)piperidine-1-carboxylate]",45,77,51,–,–,–,–,–,–,IC50 (CquiOBP5): 7.9 µM; Kd (CquiOBP5): 5.6 µM; IC50 (CquiOBP2): > 10 µM; Kd (CquiOBP2): > 2.5 µM; IC50 (CquiOBP1 [1]): 10.2 µM; Kd (CquiOBP1 [1]): 6.4 µM; pH of the midpoint transition (CquiOBP1 [2]): 5.8
"CCCCCCCCCC[C@H](OC(C)=O)[C@H]1CCCC(=O)O1 [MOP, (5R,6S)-6-acetoxy-5-hexadecanolide]",52,86,48,10.3 µM,7.2 µM,> 10 µM,> 2.5 µM,8.4 µM,5.3 µM,"EAG responses, knockdown vs wild type [3]: significant lower; binding to CquiOBP5 (in words) (CquiOBP5; in vitro, NPN displacement): bound; binding to CquiOBP2 (in words) (CquiOBP2; in vitro, NPN displacement): cannot displace NPN; binding to CquiOBP1 (in words) (CquiOBP1 [1]; in vitro, NPN displacement): bound; binding to AaegOBP1 (AaegOBP1): bound; pH of the midpoint transition (CquiOBP1 [2]): 6.3"
"CC(=O)OC/C=C(\C)CCC=C(C)C [Geranyl acetate, geranyl acetate]",81,90,94,> 10 µM,> 7 µM,> 10 µM,> 2.5 µM,> 10 µM,> 6.3 µM,–
(±)-citronellal,90,88,65,> 10 µM,> 7 µM,> 10 µM,> 2.5 µM,> 10 µM,> 6.3 µM,–
"OCCc1ccccc1 [2-Phenylethanol, 2-phenylethanol]",95,92,91,> 10 µM,> 7 µM,> 10 µM,> 2.5 µM,> 10 µM,> 6.3 µM,–
"CCCCCCO [1-Hexanol, 1-hexanol]",88,89,85,> 10 µM,> 7 µM,> 10 µM,> 2.5 µM,> 10 µM,> 6.3 µM,–
"c1ccc2[nH]ccc2c1 [Indole, indole]",80,87,86,> 10 µM,> 7 µM,> 10 µM,> 2.5 µM,> 10 µM,> 6.3 µM,binding to AgamOBP1 (AgamOBP1): selectively bind
"CCN(CC)C(=O)c1cccc(C)c1 [DEET, N,N-diethyl-3-methylbenzamide]",92,96,82,> 10 µM,> 7 µM,> 10 µM,> 2.5 µM,> 10 µM,> 6.3 µM,–
"CCCCCCCCC=O [Nonanal, nonanal]",46.5,87,51.4,8.3 µM,5.8 µM,> 10 µM,> 2.5 µM,10.5 µM,6.6 µM,"EAG responses, knockdown vs wild type [3]: not significantly different; pH of the midpoint transition (CquiOBP1 [2]): 5.5"
CCCCCCCCCC(C)=O [2-undecanone],–,–,–,–,–,–,–,–,–,binding to AfunOBP1 (AfunOBP1): best ligand
"CC(C)[C@]12CC(=O)[C@H](C)[C@H]1C2 [Thujone, thujone]",90,87,96,–,–,–,–,–,–,IC50 (CquiOBP5): > 10 µM; Kd (CquiOBP5): > 7 µM; IC50 (CquiOBP2): > 10 µM; Kd (CquiOBP2): > 2.5 µM; IC50 (CquiOBP1 [1]): > 10 µM; Kd (CquiOBP1 [1]): > 6.3 µM
"CCOC(=O)Cc1ccccc1 [Ethyl 2-phenylacetate, ethyl 2-phenylacetate]",91,87,92,–,–,–,–,–,–,IC50 (CquiOBP5): > 10 µM; Kd (CquiOBP5): > 7 µM; IC50 (CquiOBP2): > 10 µM; Kd (CquiOBP2): > 2.5 µM; IC50 (CquiOBP1 [1]): > 10 µM; Kd (CquiOBP1 [1]): > 6.3 µM
